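48-hour exposure; five concentrations; linearly interpolated endpoints. GI50 = concentration required for 50% inhibition of growth.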 Calls of active or inactive are those of the source. Cut-off read from the data, not from the text of the source: active = GI50 up to about 1.1 µM and inactive = higher.
How the values were obtained:
Assay in all cases: DTP human tumour cell line panel, 48 h
NCI-H226 = tested on: NCI-H226
UACC-257 = tested on: UACC-257
SK-OV-3 = tested on: SK-OV-3
Malme-3M = tested on: Malme-3M
SN12C = tested on: SN12C
CAKI-1 = tested on: CAKI-1
NCI-H522 = tested on: NCI-H522
A549 = tested on: A549
OVCAR-3 = tested on: OVCAR-3
OVCAR-8 = tested on: OVCAR-8
SNB-75 = tested on: SNB-75
K562 = tested on: K562
HL-60 = tested on: HL-60
COLO 205 = tested on: COLO 205
CCRF-CEM = tested on: CCRF-CEM
SW-620 = tested on: SW-620
EKVX = tested on: EKVX
SF-295 = tested on: SF-295
RPMI-8226 = tested on: RPMI-8226
M14 = tested on: M14

Measured: GI50

C=C1CC[C@@H](Br)C(C)(C)[C@]12CCC(C)(O)C(Cl)C2 (some centres not stated)
inactive: NCI-H226 16.7 µM | UACC-257 17.9 µM | SK-OV-3 19.5 µM | Malme-3M 30.3 µM | SN12C 16.4 µM | CAKI-1 15.8 µM | NCI-H522 16.6 µM | A549 20 µM | OVCAR-3 20.3 µM | OVCAR-8 18.7 µM | SNB-75 31 µM | K562 22.4 µM | HL-60 19.9 µM | COLO 205 16 µM | CCRF-CEM 24.2 µM | SW-620 14.2 µM | EKVX 19.1 µM | SF-295 20.6 µM | RPMI-8226 18.8 µM

N/C(=N\O)N/N=C/c1ncccc1O
inactive: NCI-H226 18.7 µM | UACC-257 26.1 µM | SK-OV-3 35.9 µM | Malme-3M 35.2 µM | SN12C 16.7 µM | CAKI-1 22.4 µM | NCI-H522 15.1 µM | A549 10.1 µM | OVCAR-3 14.8 µM | OVCAR-8 5.04 µM | SNB-75 17.9 µM | K562 4.82 µM | HL-60 2.41 µM | COLO 205 11.9 µM | CCRF-CEM 6.43 µM | SW-620 22 µM | EKVX 22.1 µM | SF-295 10.6 µM | RPMI-8226 1.83 µM

CCOC(=O)/C=C1/C(CCCOCc2ccccc2)C2CCCC23CC2(CCN13)OCCO2 (configuration not stated)
inactive: NCI-H226 22.6 µM | UACC-257 19.5 µM | SK-OV-3 43 µM | Malme-3M 16.1 µM | SN12C 25.5 µM | NCI-H522 6.82 µM | A549 18.9 µM | OVCAR-3 18.3 µM | OVCAR-8 24.8 µM | SNB-75 2.99 µM | K562 13.5 µM | HL-60 10.2 µM | COLO 205 19.1 µM | CCRF-CEM 19.5 µM | SW-620 33.9 µM | EKVX 34.8 µM | SF-295 23.6 µM | RPMI-8226 6.24 µM

CC(=O)OC1CCn2nnc(CO)c21 (configuration not stated)
inactive: NCI-H226 > 100 µM | UACC-257 > 100 µM | SK-OV-3 > 100 µM | Malme-3M > 100 µM | SN12C > 100 µM | CAKI-1 > 100 µM | NCI-H522 > 100 µM | A549 > 100 µM | OVCAR-3 > 100 µM | OVCAR-8 > 100 µM | SNB-75 23.8 µM | K562 > 100 µM | COLO 205 > 100 µM | SW-620 > 100 µM | EKVX > 100 µM | SF-295 > 100 µM | RPMI-8226 > 100 µM

N#Cc1c(N)c2c(c(-c3ccccc3)c1-c1ccccc1)C(=O)N(NC(=S)Nc1ccccc1)C2=O
inactive: NCI-H226 > 100 µM | UACC-257 > 100 µM | Malme-3M > 100 µM | SN12C > 100 µM | CAKI-1 > 100 µM | NCI-H522 57.3 µM | A549 64.1 µM | OVCAR-3 64.4 µM | OVCAR-8 88.7 µM | SNB-75 65.2 µM | K562 88.7 µM | M14 > 100 µM | HL-60 37.9 µM | COLO 205 75.2 µM | CCRF-CEM 51.8 µM | SW-620 > 100 µM | EKVX > 100 µM | SF-295 68.5 µM | RPMI-8226 16.7 µM

CCOC(=O)NC(Nc1ccc(C)cc1)(C(F)(F)F)C(F)(F)F
inactive: NCI-H226 > 100 µM | SK-OV-3 > 100 µM | Malme-3M > 100 µM | SN12C > 100 µM | NCI-H522 > 100 µM | A549 > 100 µM | OVCAR-3 > 100 µM | OVCAR-8 > 100 µM | SNB-75 > 100 µM | K562 > 100 µM | M14 > 100 µM | HL-60 > 100 µM | COLO 205 > 100 µM | CCRF-CEM > 100 µM | SW-620 > 100 µM | SF-295 > 100 µM | RPMI-8226 > 100 µM

Nc1c(S(=O)(=O)O)cc(S(=O)(=O)O)c2ccc(/N=N/c3ccc(/C=C/c4ccc(/N=N/c5ccc6c(S(=O)(=O)O)cc(S(=O)(=O)O)c(N)c6c5O)cc4S(=O)(=O)O)c(S(=O)(=O)O)c3)c(O)c12
inactive: NCI-H226 > 100 µM | UACC-257 > 100 µM | SK-OV-3 97.1 µM | Malme-3M > 100 µM | SN12C > 100 µM | NCI-H522 54.1 µM | A549 75 µM | OVCAR-3 > 100 µM | OVCAR-8 > 100 µM | SNB-75 56.9 µM | K562 > 100 µM | HL-60 36.1 µM | COLO 205 > 100 µM | CCRF-CEM > 100 µM | SW-620 > 100 µM | EKVX > 100 µM | SF-295 > 100 µM | RPMI-8226 > 100 µM
